From the supplement of paper PMC4862054

Columns and labels:
Assay in all cases: drug sensitivity score (DSS), CellTiter-Blue viability (DSS (AUC-based score)); higher = stronger viability inhibition; extreme values may be limits of the assay
Conditions in all cases: incubation time: 72 h
MFM-223 = system: MFM-223
Procedure: (§1)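 DSRT with the CellTiter-Blue (resazurin reduction) viability readout, fluorescence 560/590 nm, 72 h incubation. Plates were normalised to DMSO and benzethonium chloride controls. DSS is computed from the area under the fitted dose-response curve (5 or 9 concentrations).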

CAL-148 = system: CAL-148
Procedure: as §1

HCC1599 = system: HCC1599
Procedure: as §1

CAL-51 = system: CAL-51
Procedure: as §1

MDA-MB-231 = system: MDA-MB-231
Procedure: as §1

HDQ-P1 = system: HDQ-P1
Procedure: as §1

CAL-120 = system: CAL-120
Procedure: as §1

SK-BR-3 = system: SK-BR-3
Procedure: as §1

DU-4475 = system: DU-4475
Procedure: as §1

BT-549 = system: BT-549
Procedure: as §1

BT-474 = system: BT-474
Procedure: as §1

CAL-85-1 = system: CAL-85-1
Procedure: as §1

HCC1937 = system: HCC1937
Procedure: as §1

MDA-MB-436 = system: MDA-MB-436
Procedure: as §1

Hs578T = system: Hs578T
Procedure: as §1

MDA-MB-453 = system: MDA-MB-453
Procedure: as §1

HCC1143 = system: HCC1143
Procedure: as §1

CN(C)C/C=C/C(=O)Nc1cc2c(Nc3ccc(F)c(Cl)c3)ncnc2cc1O[C@H]1CCOC1 [Afatinib] showed a drug sensitivity score (MFM-223) of 3.47, a drug sensitivity score (CAL-148) of 5.66 and a drug sensitivity score (HCC1599) of 0. For the same compound, the drug sensitivity score (CAL-51) was 1.9, the drug sensitivity score (MDA-MB-231) was 7.75 and the drug sensitivity score (HDQ-P1) was 15.3. For the same compound, the drug sensitivity score (CAL-120) was 4.96, the drug sensitivity score (SK-BR-3) was 31.5 and the drug sensitivity score (DU-4475) was 0. The drug sensitivity score (BT-549) was 5.88, the drug sensitivity score (BT-474) was 23.5 and the drug sensitivity score (CAL-85-1) was 13.1. For the same compound, the drug sensitivity score (HCC1937) was 7.41, the drug sensitivity score (MDA-MB-436) was 3.02 and the drug sensitivity score (Hs578T) was 4.14. For the same compound, the drug sensitivity score (MDA-MB-453) was 21.3 and the drug sensitivity score (HCC1143) was 0.

CN1CC[C@H](c2c(O)cc(O)c3c(=O)cc(-c4ccccc4Cl)oc23)[C@H](O)C1 [Alvocidib] was tested, and the drug sensitivity score (MFM-223) was 19.2, the drug sensitivity score (CAL-148) was 20.3 and the drug sensitivity score (HCC1599) was 17.4. For the same compound, the drug sensitivity score (CAL-51) was 19.9, the drug sensitivity score (MDA-MB-231) was 19.6 and the drug sensitivity score (HDQ-P1) was 19. For the same compound, the drug sensitivity score (CAL-120) was 17.8, the drug sensitivity score (SK-BR-3) was 23.9 and the drug sensitivity score (DU-4475) was 22.4. The drug sensitivity score (BT-549) was 17.2, the drug sensitivity score (BT-474) was 14.5 and the drug sensitivity score (CAL-85-1) was 20.8. It also gave a drug sensitivity score (HCC1937) of 19.1, a drug sensitivity score (MDA-MB-436) of 15.6 and a drug sensitivity score (Hs578T) of 22.8. For the same compound, the drug sensitivity score (MDA-MB-453) was 19.6 and the drug sensitivity score (HCC1143) was 17.9.

Compound Nc1nc(Cl)nc2c1ncn2[C@H]1C[C@H](O)[C@@H](CO)O1 [Cladribine] has a drug sensitivity score (MFM-223) of 0, a drug sensitivity score (CAL-148) of 0.812 and a drug sensitivity score (HCC1599) of 0. For the same compound, the drug sensitivity score (CAL-51) was 0.39, the drug sensitivity score (MDA-MB-231) was 7.23 and the drug sensitivity score (HDQ-P1) was 0. For the same compound, the drug sensitivity score (CAL-120) was 3.94, the drug sensitivity score (SK-BR-3) was 1.21 and the drug sensitivity score (DU-4475) was 1.23. For the same compound, the drug sensitivity score (BT-549) was 3.51, the drug sensitivity score (BT-474) was 0 and the drug sensitivity score (CAL-85-1) was 0. For the same compound, the drug sensitivity score (HCC1937) was 8.9, the drug sensitivity score (MDA-MB-436) was 1.7 and the drug sensitivity score (Hs578T) was 0. The drug sensitivity score (MDA-MB-453) was 0 and the drug sensitivity score (HCC1143) was 3.82.

For Nc1ccn([C@@H]2O[C@H](CO)[C@@H](O)[C@@H]2O)c(=O)n1 [Cytarabine], the drug sensitivity score (MFM-223) was 0, the drug sensitivity score (CAL-148) was 19.2 and the drug sensitivity score (HCC1599) was 3. It also gave a drug sensitivity score (CAL-51) of 15.4, a drug sensitivity score (MDA-MB-231) of 7.18 and a drug sensitivity score (HDQ-P1) of 0. It also gave a drug sensitivity score (CAL-120) of 7.69, a drug sensitivity score (SK-BR-3) of 8.27 and a drug sensitivity score (DU-4475) of 12.3. For the same compound, the drug sensitivity score (BT-549) was 7.65, the drug sensitivity score (BT-474) was 0 and the drug sensitivity score (CAL-85-1) was 3.04. The drug sensitivity score (HCC1937) was 13.9, the drug sensitivity score (MDA-MB-436) was 4.91 and the drug sensitivity score (Hs578T) was 11.6. It also gave a drug sensitivity score (MDA-MB-453) of 6.62 and a drug sensitivity score (HCC1143) of 6.95.

Cc1c2oc3c(C)ccc(C(=O)N[C@@H]4C(=O)N[C@H](C(C)C)C(=O)N5CCC[C@H]5C(=O)N(C)CC(=O)N(C)[C@@H](C(C)C)C(=O)O[C@@H]4C)c3nc-2c(C(=O)N[C@@H]2C(=O)N[C@H](C(C)C)C(=O)N3CCC[C@H]3C(=O)N(C)CC(=O)N(C)[C@@H](C(C)C)C(=O)O[C@@H]2C)c(N)c1=O [Dactinomycin] showed a drug sensitivity score (MFM-223) of 20.1, a drug sensitivity score (CAL-148) of 34.1 and a drug sensitivity score (HCC1599) of 20.8. For the same compound, the drug sensitivity score (CAL-51) was 29.7, the drug sensitivity score (MDA-MB-231) was 30.8 and the drug sensitivity score (HDQ-P1) was 28.5. For the same compound, the drug sensitivity score (CAL-120) was 30.8, the drug sensitivity score (SK-BR-3) was 28.9 and the drug sensitivity score (DU-4475) was 38.4. It also gave a drug sensitivity score (BT-549) of 32.8, a drug sensitivity score (BT-474) of 17.7 and a drug sensitivity score (CAL-85-1) of 30.9. The drug sensitivity score (HCC1937) was 21.8, the drug sensitivity score (MDA-MB-436) was 27.9 and the drug sensitivity score (Hs578T) was 33.6. It also gave a drug sensitivity score (MDA-MB-453) of 30.5 and a drug sensitivity score (HCC1143) of 27.4.

Compound COc1cccc2c1C(=O)c1c(O)c3c(c(O)c1C2=O)C[C@@](O)(C(=O)CO)C[C@@H]3O[C@H]1C[C@H](N)[C@H](O)[C@H](C)O1 [Doxorubicin] has a drug sensitivity score (MFM-223) of 2.94, a drug sensitivity score (CAL-148) of 14.2 and a drug sensitivity score (HCC1599) of 3.59. The drug sensitivity score (CAL-51) was 8.73, the drug sensitivity score (MDA-MB-231) was 9.57 and the drug sensitivity score (HDQ-P1) was 7. It also gave a drug sensitivity score (CAL-120) of 11.3, a drug sensitivity score (SK-BR-3) of 13.3 and a drug sensitivity score (DU-4475) of 12.9. The drug sensitivity score (BT-549) was 7.93, the drug sensitivity score (BT-474) was 4.12 and the drug sensitivity score (CAL-85-1) was 5.11. The drug sensitivity score (HCC1937) was 11.8, the drug sensitivity score (MDA-MB-436) was 8.25 and the drug sensitivity score (Hs578T) was 9.11. It also gave a drug sensitivity score (MDA-MB-453) of 4.31 and a drug sensitivity score (HCC1143) of 8.86.

With Cc1ccc(F)c(NC(=O)Nc2ccc(-c3cccc4[nH]nc(N)c34)cc2)c1 [Linifanib] the drug sensitivity score (MFM-223) was 0, the drug sensitivity score (CAL-148) was 0 and the drug sensitivity score (HCC1599) was 0. The drug sensitivity score (CAL-51) was 0, the drug sensitivity score (MDA-MB-231) was 0 and the drug sensitivity score (HDQ-P1) was 0. The drug sensitivity score (CAL-120) was 0, the drug sensitivity score (SK-BR-3) was 0 and the drug sensitivity score (DU-4475) was 0. The drug sensitivity score (BT-549) was 0, the drug sensitivity score (BT-474) was 0 and the drug sensitivity score (CAL-85-1) was 0. The drug sensitivity score (HCC1937) was 0, the drug sensitivity score (MDA-MB-436) was 0 and the drug sensitivity score (Hs578T) was 0. The drug sensitivity score (MDA-MB-453) was 0 and the drug sensitivity score (HCC1143) was 0.

COc1cc(Nc2ncc3c(n2)-c2ccc(Cl)cc2C(c2c(F)cccc2OC)=NC3)ccc1C(=O)O [MLN8237] showed a drug sensitivity score (MFM-223) of 9.51, a drug sensitivity score (CAL-148) of 15 and a drug sensitivity score (HCC1599) of 2.39. The drug sensitivity score (CAL-51) was 18.1, the drug sensitivity score (MDA-MB-231) was 10.4 and the drug sensitivity score (HDQ-P1) was 14.2. The drug sensitivity score (CAL-120) was 10.7, the drug sensitivity score (SK-BR-3) was 16.7 and the drug sensitivity score (DU-4475) was 22.9. It also gave a drug sensitivity score (BT-549) of 8.32, a drug sensitivity score (BT-474) of 4.4 and a drug sensitivity score (CAL-85-1) of 11.9. For the same compound, the drug sensitivity score (HCC1937) was 17.8, the drug sensitivity score (MDA-MB-436) was 6.09 and the drug sensitivity score (Hs578T) was 14.7. The drug sensitivity score (MDA-MB-453) was 16.6 and the drug sensitivity score (HCC1143) was 10.4.

In the case of S=c1[nH]cnc2nc[nH]c12 [Mercaptopurine], the drug sensitivity score (MFM-223) is reported as 0, the drug sensitivity score (CAL-148) is reported as 0 and the drug sensitivity score (HCC1599) is reported as 0. It also gave a drug sensitivity score (CAL-51) of 0.87, a drug sensitivity score (MDA-MB-231) of 0 and a drug sensitivity score (HDQ-P1) of 0. The drug sensitivity score (CAL-120) was 4.1, the drug sensitivity score (SK-BR-3) was 0 and the drug sensitivity score (DU-4475) was 0. For the same compound, the drug sensitivity score (BT-549) was 0, the drug sensitivity score (BT-474) was 0 and the drug sensitivity score (CAL-85-1) was 0. It also gave a drug sensitivity score (HCC1937) of 4.84, a drug sensitivity score (MDA-MB-436) of 0 and a drug sensitivity score (Hs578T) of 0. It also gave a drug sensitivity score (MDA-MB-453) of 0 and a drug sensitivity score (HCC1143) of 0.
